Consider two molecules from US20240180881A1, “METHODS FOR DECREASING RESISTANCE TO CHEMOTHERAPY” (National Institute of Immunology, priority 2022, published 2024).

One experiment deals with HCT116 IC60 CDDPR cells. As to the kind of experiment: MTT assay, CDDP gradient with or without disruptor. To be noted: CDDP gradient alone, 72 hours, read-out: EC50 (μM), HCT116 WT CDDP^R. Type of experiment: cell-based. Here is the method:
(§1) The three resistant lines and their wildtype counterpart HCT116 were exposed to a gradient of CPT, CDDP or 1-OHP.
(§2) Concentrations of CPT used: 0.140 nM, 20 nM, 50 nM, 1000 nM. Concentration of 1-OHP: 0.14 μM, 2 μM, 4 μM, 6 μM, 8 μM. Concentrations of CDDP used: 0.140 μM, 2 μM, 5 μM, 10 μM. The percentage of viable cells were determined by MTT assays (FIG. 12A-12C). The data in FIG. 12A and FIG. 12C is from three independent experiments and the data in FIG. 12B is from nine independent experiments. […] The levels of MRP2, MRP3, MRP5, MXR were quantitated from three independent experiments. […] Specifically, HCT116 IC60 CPTR cells were transfected with the HR substrate for 72 hours and the levels of HR was determined (FIG. 6A). The data is from three independent experiments. […] The number of soft agar colonies in each condition were counted. The data is from three independent experiments.
(§3) To generate camptothecin and cisplatin resistant cells (named as HCT116 IC60 CPT^R, HCT116 IC60 CDDP^R respectively), HCT116 wild type were seeded in a 10 cm dish to a confluency of 80%. The IC20 concentrations of cisplatin (3.38 μM) and camptothecin (12.6 nM) was added for 2 hours and 6 hours, respectively. […] Resistant index was calculated using the following formula: Resistant index=IC60 of the resistant cells/IC60 of the parental cells. […]

Another experiment concerns HCT116 WT cells. The experiment in a line: MTT assay, chemotherapeutic drug gradient with or without disruptor. Type of experiment: cell-based. To be noted: for EC50: MTT, 72 hours. Here is the method:
as §1, §2
To generate camptothecin and cisplatin resistant cells (named as HCT116 IC60 CPT^R, HCT116 IC60 CDDP^R respectively), HCT116 wild type were seeded in a 10 cm dish to a confluency of 80%. The IC20 concentrations of cisplatin (3.38 μM) and camptothecin (12.6 nM) was added for 2 hours and 6 hours, respectively. Post treatment, the cells were washed twice with 1×PBS and fresh media was added. After every 48 hours, the media was changed and IC20 concentration of the drugs were added only if the confluency of cells was at least 80%. […] Resistant index was calculated using the following formula: Resistant index=IC60 of the resistant cells/IC60 of the parental cells.
Cells were seeded in a 96-well plate overnight. Next day, the culturing media was replaced with Optimem media, followed by incubation with BLM_CPP or SCM_CPP for 1 hr. The final concentrations of the peptides were 450 nM for cisplatin (CDDP) and 180 nM (for all other drugs). […] Post treatment, the cells were washed with 1×PBS and fresh media was added. After 72 hours, MTT assay was carried out to determine the percentage cell viability of the cells with respect to the untreated cells.
On the technique in general: Tetrazolium assays rely on reduction of a dye to a coloured formazan, in cell work by metabolically active cells.

A further experiment concerns HCT116 IC60 1-OHPR cells. The conditions noted are these: read-out: EC50 (μM), HCT116 1-OHP^R + 1-OHP; 1-OHP gradient alone, MTT, 72 hours. Here is the method: as §1, §2, §3
The mark [1] stands for this setting: HCT116, used to generate resistant cells.

Each structure is given as a SMILES string. Read-outs that look alike come from different tables or passages of the source.

With `[NH2][Pt]([NH2])([Cl])[Cl]` [CDDP, cisplatin], in the experiment on HCT116 IC60 CDDPR cells, the concentration for a half-maximal effect (EC50) came out at 21.7 µM. The concentration for a half-maximal effect (EC50) in the experiment on HCT116 WT cells (CDDP gradient alone, read-out: EC50 (μM), HCT116 WT) stood at 3.78 µM. In the experiment on HCT116 WT cells (setting [1]), this molecule registered an IC40 concentration of 15.5 µM and an IC60 concentration of 35.09 µM. Further, the IC20 with HCT116 WT cells (HCT116 wild type, used to generate resistant cells, read-out: IC20 concentration) amounted to 3.38 µM.

As to `N[C@@H]1CCCC[C@H]1N.O=C([O-])C(=O)[O-].[Pt+2]` [1-OHP, oxaliplatin], the EC50 with HCT116 IC60 1-OHPR cells is 14.1 µM; with HCT116 WT cells (1-OHP gradient alone, read-out: EC50 (μM), HCT116 WT + 1-OHP), 4.77 µM.

As usually defined, the EC50 is the concentration at which the effect is half-maximal.
